The values that follow are results of earlier work, collected in patent US20120264119A1, “NEW METHOD FOR DECONTAMINATION AND PROCESSING OF CLINICAL SPECIMENS FROM A PATIENT” (priority 2011, published 2012).

The subject of this data set is Mycobacteria. Conditions: sputum processing with sodium hydroxide alone or with N-acetyl-cysteine.

For `[Na+].[OH-]` [NaOH, sodium hydroxide], the viable mycobacteria destroyed entry is given as “more than 80%”.
